In this experiment the target is T1, Sphingosine kinase 1 (SK1) (Homo sapiens, UniProt Q9NYA1).
T1 construct: gene SPHK1
The experiment is described as follows: recombinant SK1 luminescent ATP-detection kinase activity assay (Echelon kit). It counts as biochemical.

T1 sequence (Q9NYA1 whole entry): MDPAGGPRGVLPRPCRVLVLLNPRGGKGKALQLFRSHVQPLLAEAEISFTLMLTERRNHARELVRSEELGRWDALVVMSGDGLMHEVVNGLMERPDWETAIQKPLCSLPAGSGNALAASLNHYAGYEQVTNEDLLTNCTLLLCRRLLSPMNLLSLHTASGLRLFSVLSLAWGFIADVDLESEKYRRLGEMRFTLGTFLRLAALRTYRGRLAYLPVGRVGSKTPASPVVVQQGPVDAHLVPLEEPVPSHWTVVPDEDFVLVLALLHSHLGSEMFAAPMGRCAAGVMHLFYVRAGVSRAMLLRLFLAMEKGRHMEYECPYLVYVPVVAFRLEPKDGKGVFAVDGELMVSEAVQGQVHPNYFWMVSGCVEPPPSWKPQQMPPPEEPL

As a reminder, the IC50 is the concentration at which inhibition is half-maximal. In the case of `CC1=CC(C)=[N+]2C1=C(c1ccc(-c3cn(Cc4cc(C)cc(OCc5ccc(CN6CCC[C@@H]6CO)cc5)c4)nn3)cc1)c1c(C)cc(C)n1[B-]2(F)F` [compound 2, (R)-(1-(4-((3-((4-(4-(5,5-Difluoro-1,3,7,9-tetramethyl-5H-4l4,5l4-dipyrrolo[1,2-c:2’,1’-f][1,3,2]diazaborinin-10-yl)phenyl)-1H-1,2,3-triazol-1-yl)methyl)-5-methylphenoxy)methyl)benzyl)pyrrolidin-2-yl)methanol], the IC50 came out at 19.9 nM.

Values taken from paper PMC6930633, “Synthesis and Biological Evaluation of BODIPY-PF-543” (Molecules, 2019).
